How the values were obtained:
Assay type in all cases: cell-based, human
[1] = tested on: K562 cells; test: Proliferation assay (Coulter counter); settings: for rescue of ME2 knockdown cell cycle phenotype (decreased proliferation): supplementation
Procedure: Proliferation assay: Control and ME2 deficient cell lines were plated in 6-well plate at a density of 1×10^5 cells/well and maintained at 37° C. in a 5% CO2 incubator. After 24, 72, 120 and 168 hours of initial plating, 0.5 ml cells were diluted into 10 ml of Hanks' buffer and counted by Coulter counter.

[2] = tested on: K562 cells; test: Erythroid differentiation assay (glycophorin A, CD10, benzidine hemoglobin staining); settings: for rescue of differentiation mediated by ME2 depletion: supplementation
Procedure: Erythroid differentiation assay: Induction of surface expression of the erythroid marker glycophorin A and CD10 was determined by indirect immunofluorescence and flow cytometry, as described previously by Hatzivassiliou et al., in Cancer Cell. 8: 311-321 (2005). In brief, K562 cells with or without ME2 knockdown were stained with a mouse FITC-conjugated anti-glycophorin A or CD10 antibody (Dako) at 1:100 dilution in medium plus 10% FCS for 30 min at 4° C. Control cells were stained with FITC-conjugated IgG. Cells expressing hemoglobin were determined by benzidine staining, as previously described by Park et al., in Cell Growth Differ. 12: 481-486 (2001). The benzidine dihydrochloride stock solution contained 0.2% w/v benzidine hydrochloride in 3% acetic acid. Cells (1×10^5) were washed twice in ice-cold PBS. The cell pellets were resuspended in ice-clod PBS. Before staining, 5 μl of 30% H2O2 was added to 1 ml of a stock solution of benzidine solution. The cell suspensions were mixed with the benzidine solution in a 1:1 ratio and counted in a hemocytometer after 30 min. Blue cells were considered to be positive for hemoglobin. The proportion of blue-stained cells was quantified under light microscopy. A total of 500 cells were counted for each sample in triplicate. Shown is the mean±SD of a representative experiment.

[3] = tested on: K562 cells; test: Determination of cellular reactive oxygen species (CM-H2DCF-DA, MitoSOX); settings: ME2 knockdown K562 cells, 5.0 mM
Procedure: Determination of cellular reactive oxygen species (ROS): Intracellular ROS production was measured by staining with CM-H2DCFDA. CM-H2DCFDA is a cell-permeant indicator for ROS that is nonfluorescent until removal of the acetate groups by intracellular esterases and oxidation occurs within the cell. The procedure for measuring ROS was carried out as described in Trachootham et al., in Cancer Cell. 10: 241-252 (2006), with minor modifications. Briefly, K562 cells transduced with shRNA lentiviral particles or control vector were selected with puromycin for 2 weeks, […], followed by flow cytometry using a FACSCalibur equipped with CellQuest Pro software. Superoxide radicals (O2^−) were measured separately using the MitoSOX™ reagent according to the manufacturer's protocol (Invitrogen). In brief, cells with or without ME2 knockdown were incubated with 5 μM MitoSOX™ reagent for 10 minutes at 37° C., then washed three times and observed under a fluorescence microscope using the Rhodamine filter and Axiovision software for capturing images (Zeiss, Germany).

[4] = tested on: K562 cells; test: Cell death assessed by flow cytometry; settings: 72 h
Procedure: A: Cells were treated with different concentrations of amino-oxyacetate and expression levels of the erythroid marker glycophorin A (GPA) on the surface of K562 cells were assessed using a mouse FITC-conjugated anti-human glycophorin A antibody. Each histogram is representative of three experiments. B: K562 cells with or without ME2 knockdown were incubated with different concentrations of AOA for 72 h. Cell death was assessed by flow cytometry. Top: pLKO; Bottom: shME2-3. […] C: Cells were treated with different concentrations of malate and expression levels of the erythroid marker glycophorin A on the surface of K562 cells were assessed using a mouse FITC-conjugated anti-human glycophorin A antibody. Each histogram is representative of three experiments.
K562 cells with or without ME2 knockdown were incubated with 0.1 mM AOA plus 2 mM α-KG for 48 h. Cell death was assessed by flow cytometry. A: pLKO K562 cells without any treatment. B: pLKO K562 cells treated with 0.1 mM AOA for 48 h. C: pLKO K562 cells treated with 0.1 mM AOA combined with 2 mM α-KG.

[5] = tested on: phospho-ERK1/2, phospho-AKT, GATA-1, vimentin; test: Western blot of signaling pathways, GATA-1 and vimentin in K562 cells; settings: K562, 10 μM
Procedure: K562 cells with or without ME2 knockdown were lysed with RIPA lysis buffer (50 mM Tris-HCl, pH 8.0, 150 mM NaCl, 1% Triton X-100, 1 mM EGTA) containing 1 mM PMSF and a protease inhibitor cocktail and subjected to centrifugation at 15,000×g for […] at 4° C. to remove debris. After lysis, equal aliquots of protein lysate were resolved by Western blotting. Western blots were probed with anti-phospho-ERK1/2, anti-ERK1, anti-p-AKT308, anti-AKT472, anti-AKT1/2, anti-GATA-1, anti-vimentin, and anti-β-tubulin. A: Phospho-ERK1/2 activity in ME2 knockdown K562 cells. B: Phospho-AKT detection in ME2 knockdown K562 cells. C: 10 μM PI3K inhibitor, LY294002, inhibits p-AKT activity. D: LY294002 rescue of differentiation in ME2 knockdown K562 cells. E: The effect of LY294002 on the proliferation of K562 cells with (third to sixth bars in graph) or without ME2 (first to second bars in graph) knockdown. F: The expression difference of GATA-1 and vimentin in ME2 knockdown cells. Data are representative of three independent experiments. […] Membranes were washed in PBS plus 0.1% Tween 20 and probed with anti-rabbit or anti-mouse HRP-conjugated secondary antibody (both at 1:10,000 dilution), and proteins were detected using the ECL Plus chemiluminescence detection reagent (Amersham Biosciences).

## Nc1ccn([C@@H]2O[C@H](CO)[C@@H](O)[C@H]2O)c(=O)n1 [cytidine]
[1]; ME2 knockdown K562 cells
  rescue of ME2 knockdown cell cycle phenotype (decreased proliferation): nor were we able to rescue
[2]; ME2 knockdown K562 cells
  rescue of differentiation mediated by ME2 depletion: could not rescue the differentiation

## CC(=O)N[C@@H](CS)C(=O)O [NAC, N-acetyl cysteine]
[3]
  endogenous ROS: completely inhibited
[2]; ME2 knockdown K562 cells, 5.0 mM
  differentiation induced by ME2 depletion: without affecting differentiation

## O=C(O)CC(O)C(=O)O (centres unmarked) [malate]
[2]; wild type K562, 0.1 to 10 mM in medium
  erythroid differentiation: could not induce erythroid differentiation

## NOCC(=O)O [AOA, amino-oxyacetate]
[4]; K562 with ME2 silenced (shME2-3)
  cell death: induced leukemia cell death (mainly apoptotic)
[4]; wild type K562 (pLKO)
  cell death: induced leukemia cell death (mainly necrotic)
[2]; K562, 0.2 to 0.8 mM in medium
  erythroid differentiation (glycophorin staining): could not induce erythroid differentiation

## O=c1ccn([C@@H]2O[C@H](CO)[C@@H](O)[C@H]2O)c(=O)[nH]1 [uridine]
[1]; ME2 knockdown K562 cells
  rescue of ME2 knockdown cell cycle phenotype (decreased proliferation): nor were we able to rescue
[2]; ME2 knockdown K562 cells
  rescue of differentiation mediated by ME2 depletion: could not rescue the differentiation

## O=c1cc(N2CCOCC2)oc2c(-c3ccccc3)cccc12 [LY294002, 2-morpholin-4-yl-8-phenylchromen-4-one]
[1]; ME2 knockdown K562 cells
  rescue of proliferation inhibition: does not rescue proliferation inhibition in ME2 knockdown cells as effectively
[1]; ME2 knockdown vs parental K562 cells
  sensitivity of proliferation inhibition to LY294002: more sensitive
[2]; ME2 knockdown K562 cells, 10 μM
  differentiation mediated by ME2 silencing: rescues the differentiation
[5]
  p-AKT activity: significantly inhibit p-AKT activity

Reference: US9539323B2, “Methods and compositions for malic enzyme 2 (ME2) as a target for cancer therapy” (Beth Israel Deaconess Medical Center, Inc., priority 2010, dated 2017)
